Reference: patent publication US8772448B2, “Peptides immunoreactive with autoantibodies from patients suffering from rheumatoid arthritis” (Stichting Voor de Technische Wetenschappen, priority 1996, dated 2014)
Where no end group is shown, it is not given here. [ ]: non-standard residue; d: D form. Cit = NC(=O)NCCC[C@H](N)C(=O)O

Assays:
Format in all cases: binding, human
[1] = system: autoimmune antibodies in sera from patients suffering from rheumatoid arthritis; test: ELISA of coupled peptides with RA sera; settings: for immunological reactivity in ELISA: RA sera; for RA sera (%) positive / RA sera: number of positive sera: n = 134 RA sera, positive = OD450 of 0.2 after deduction of blank; for RA sera: number of positive sera: sera diluted 200 times
Procedure: (§1) Detection by Means of ELISA
Via an N-oxysuccinimide surface the peptides were covalently coupled to the wells of 96-well microtitre plates (Costar amide binding plates) in an amount of 1 ? g/well. Coupling took place for 16 hours at 4EC and pH 9.0. The plates were blocked for 1 hour with 2% bovine serum albumin. The sera were diluted 200 times in a diluent (0.3% BSA, 350 mM NaCl, 10 mM Tris-HCl pH 7.6, 1% vol./vol. Triton X-100, 0.5% w./vol. Na-deoxycholate, 0.1% SDS) supplemented with 10% normal rabbit serum, and incubated for one hour at room temperature. After washing the plates (3 times with PBS containing 0.05 by vol. of Tween® 20), 100 ? l of antihuman IgG conjugated with peroxidase (Dako P214), 1000 times diluted in dilution buffer, was added to the wells. After incubation for 1 hour at room temperature, the plates were washed 3 times with PBS/Tween®, and bound antibodies were detected with tetramethyl benzidine as a substrate. After 10 minutes the reaction was stopped by adding 100 ? l of 2 M sulphuric acid per well. Readout occurred at 450 nm. Sera having an OD450 of 0.2, after deduction of the blank for the respective serum (a well without a coupled peptide), were considered to be positive. […]

[2] = system: antibodies in PM/DM (polymyositis/dermatomyositis) sera; test: ELISA of coupled peptides with PM/DM sera; settings: n = 50
Procedure: as §1
(§2) Via an N-oxysuccinimide surface the peptides were covalently coupled to the wells of 96-well microtitre plates (Costar amide binding plates) in an amount of 1 ? g/well. Coupling took place for 16 hours at 4EC and pH 9.0. The plates were blocked for 1 hour with 2% bovine serum albumin. The sera were diluted 200 times in a diluent (0.3% BSA, 350 mM NaCl, 10 mM Tris-HCl pH 7.6, 1% vol./vol. Triton X-100, 0.5% w./vol. Na-deoxycholate, 0.1% SDS) supplemented with 10% normal rabbit serum, and incubated for one hour at room temperature. After washing the plates (3 times with PBS containing 0.05 by vol. of Tween® 20), 100 ? l of antihuman IgG conjugated with peroxidase (Dako P214), 1000 times diluted in dilution buffer, was added to the wells. After incubation for 1 hour at room temperature, the plates were washed 3 times with PBS/Tween®, and bound antibodies were detected with tetramethyl benzidine as a substrate. After 10 minutes the reaction was stopped by adding 100 ? l of 2 M sulphuric acid per well. Readout occurred at 450 nm. Sera having an OD450 of 0.2, after deduction of the blank for the respective serum (a well without a coupled peptide), were considered to be positive.

[3] = system: antibodies in SSC (systemic scleroderma) sera; test: ELISA of coupled peptides with SSC sera; settings: n = 50
Procedure: as §1, §2

[4] = system: antibodies in control sera from patients suffering from rheumatic diseases other than RA; test: ELISA of coupled peptides with control sera; settings: n = 154; rheumatic diseases other than RA
Procedure: as §1, §2
In total, 288 sera from patients suffering from rheumatoid diseases were used, 132 of which were from patients suffering from rheumatoid arthritis.

[5] = system: antibodies in SLE (systemic lupus erythematosus) sera; test: ELISA of coupled peptides with SLE sera; settings: n = 50
Procedure: as §1, §2

[6] = system: antibodies in pSS (primary Sjögren's syndrome) sera; test: ELISA of coupled peptides with pSS sera; settings: n = 50
Procedure: as §1, §2

Sequence	immunological reactivity in ELISA [1]	PM/DM (%) positive [2]	PM/DM: number of positive sera [2]	SSC (%) positive [3]	SSC: number of positive sera [3]	RA sera (%) positive [1]	RA sera: number of positive sera [1]	control sera (%) positive [4]	control sera: number of positive sera [4]	SLE: number of positive sera [5]	pSS (%) positive [6]	pSS: number of positive sera [6]	SLE (%) positive [5]
ESSHGWTGPSTRGRQGSRHE [nf, reference compound]	not	–	–	–	–	–	–	–	–	–	–	–	–
SHQESTAGRSRGRSGRSGS [cfA, reference compound]	did not seem to be immunologically reactive	–	–	–	–	–	–	–	–	–	–	–	–
SHQESTEGRSRGRSGRSGS [cfE, reference compound]	did not seem to be immunologically reactive	–	–	–	–	–	–	–	–	–	–	–	–
SHQESTQGRSRGRSGRSGS [cfQ, reference compound]	did not seem to be immunologically reactive	–	–	–	–	–	–	–	–	–	–	–	–
SHQESTRGRSRGRSGRSGS (Derived from known cDNA sequences of human profilaggrin) [cf, reference compound]	did not seem to be immunologically reactive	–	–	–	–	–	–	–	–	–	–	–	–
SHQESTRGRSRGRSGXSGS (SHQESTRGRSRGRSG[Cit]SGS-NH2; N-terminus assumed; SMILES C[C@@H](O)[C@H](NC(=O)[C@H](CO)NC(=O)[C@H](CCC(=O)O)NC(=O)[C@H](CCC(N)=O)NC(=O)[C@H](Cc1c[nH]cn1)NC(=O)[C@@H](N)CO)C(=O)N[C@@H](CCCNC(=N)N)C(=O)NCC(=O)N[C@@H](CCCNC(=N)N)C(=O)N[C@@H](CO)C(=O)N[C@@H](CCCNC(=N)N)C(=O)NCC(=O)N[C@@H](CCCNC(=N)N)C(=O)N[C@@H](CO)C(=O)NCC(=O)N[C@@H](CCCNC(N)=O)C(=O)N[C@@H](CO)C(=O)NCC(=O)N[C@@H](CO)C(N)=O) [cfc5]	–	2%	1	2%	1	48%	64	0.6%	1	0	4%	2	–
SHQESTRGRSRGXSGRSGS (SHQESTRGRSRG[Cit]SGRSGS-NH2; N-terminus assumed; SMILES C[C@@H](O)[C@H](NC(=O)[C@H](CO)NC(=O)[C@H](CCC(=O)O)NC(=O)[C@H](CCC(N)=O)NC(=O)[C@H](Cc1c[nH]cn1)NC(=O)[C@@H](N)CO)C(=O)N[C@@H](CCCNC(=N)N)C(=O)NCC(=O)N[C@@H](CCCNC(=N)N)C(=O)N[C@@H](CO)C(=O)N[C@@H](CCCNC(=N)N)C(=O)NCC(=O)N[C@@H](CCCNC(N)=O)C(=O)N[C@@H](CO)C(=O)NCC(=O)N[C@@H](CCCNC(=N)N)C(=O)N[C@@H](CO)C(=O)NCC(=O)N[C@@H](CO)C(N)=O) [cfc4]	–	–	0	–	0	24%	32	1.3%	2	0	–	0	–
SHQESTRGRSXGRSGRSGS (SHQESTRGRS[Cit]GRSGRSGS-NH2; N-terminus assumed; SMILES C[C@@H](O)[C@H](NC(=O)[C@H](CO)NC(=O)[C@H](CCC(=O)O)NC(=O)[C@H](CCC(N)=O)NC(=O)[C@H](Cc1c[nH]cn1)NC(=O)[C@@H](N)CO)C(=O)N[C@@H](CCCNC(=N)N)C(=O)NCC(=O)N[C@@H](CCCNC(=N)N)C(=O)N[C@@H](CO)C(=O)N[C@@H](CCCNC(N)=O)C(=O)NCC(=O)N[C@@H](CCCNC(=N)N)C(=O)N[C@@H](CO)C(=O)NCC(=O)N[C@@H](CCCNC(=N)N)C(=O)N[C@@H](CO)C(=O)NCC(=O)N[C@@H](CO)C(N)=O) [cfc3]	–	2%	1	–	0	28%	37	0.6%	2	0	2%	1	–
SHQESTRGXSRGRSGRSGS (SHQESTRG[Cit]SRGRSGRSGS-NH2; N-terminus assumed; SMILES C[C@@H](O)[C@H](NC(=O)[C@H](CO)NC(=O)[C@H](CCC(=O)O)NC(=O)[C@H](CCC(N)=O)NC(=O)[C@H](Cc1c[nH]cn1)NC(=O)[C@@H](N)CO)C(=O)N[C@@H](CCCNC(=N)N)C(=O)NCC(=O)N[C@@H](CCCNC(N)=O)C(=O)N[C@@H](CO)C(=O)N[C@@H](CCCNC(=N)N)C(=O)NCC(=O)N[C@@H](CCCNC(=N)N)C(=O)N[C@@H](CO)C(=O)NCC(=O)N[C@@H](CCCNC(=N)N)C(=O)N[C@@H](CO)C(=O)NCC(=O)N[C@@H](CO)C(N)=O) [cfc2]	–	2%	1	–	0	20%	27	2.6%	4	1	2%	1	2%
SHQESTXGRSRGRSGXSGS (SHQEST[Cit]GRSRGRSG[Cit]SGS-NH2; N-terminus assumed; SMILES C[C@@H](O)[C@H](NC(=O)[C@H](CO)NC(=O)[C@H](CCC(=O)O)NC(=O)[C@H](CCC(N)=O)NC(=O)[C@H](Cc1c[nH]cn1)NC(=O)[C@@H](N)CO)C(=O)N[C@@H](CCCNC(N)=O)C(=O)NCC(=O)N[C@@H](CCCNC(=N)N)C(=O)N[C@@H](CO)C(=O)N[C@@H](CCCNC(=N)N)C(=O)NCC(=O)N[C@@H](CCCNC(=N)N)C(=O)N[C@@H](CO)C(=O)NCC(=O)N[C@@H](CCCNC(N)=O)C(=O)N[C@@H](CO)C(=O)NCC(=O)N[C@@H](CO)C(N)=O) [cfc9]	–	–	0	–	0	42%	57	0.6%	1	0	4%	2	–
TGPSTRGRQGSXHE (TGPSTRGRQGS[Cit]HE-NH2; N-terminus assumed; SMILES C[C@@H](O)[C@H](N)C(=O)NCC(=O)N1CCC[C@H]1C(=O)N[C@@H](CO)C(=O)N[C@H](C(=O)N[C@@H](CCCNC(=N)N)C(=O)NCC(=O)N[C@@H](CCCNC(=N)N)C(=O)N[C@@H](CCC(N)=O)C(=O)NCC(=O)N[C@@H](CO)C(=O)N[C@@H](CCCNC(N)=O)C(=O)N[C@@H](Cc1c[nH]cn1)C(=O)N[C@@H](CCC(=O)O)C(N)=O)[C@@H](C)O) [nfc1]	–	–	–	–	–	10%	–	–	–	–	–	–	–
